Values quoted from earlier work, collected in patent US20200171025A1, “PHARMACEUTICAL COMPOSITION COMPRISING BREXPIPRAZOLE AND PROCESS FOR PREPARATION THEREOF” (priority 2018, published 2020).

Settings: as per BCS

For `O=c1ccc2ccc(OCCCCN3CCN(c4cccc5sccc45)CC3)cc2[nH]1` [Brexpiprazole, 7-{4-[4-(1-Benzothiophen-4-yl)piperazin-1-yl]butoxy}quinolin-2(1H)-one], the Aqueous solubility is listed as “low aqueous solubility” and the Permeability is listed as “high permeability”.
